How the values were obtained:
Format in all cases: binding
EcDnaB [1] = target: T1, EcDnaB (Escherichia coli, UniProt P0ACB0); assay: negative-stain EM 2D class averages and SAXS; settings: 0-1 mM AMPPNP in SAXS
GstDnaB = target: T2, GstDnaB (Geobacillus stearothermophilus, UniProt Q9X4C9); assay: negative-stain EM 2D class averages
T2 sequence (Q9X4C9 1-454): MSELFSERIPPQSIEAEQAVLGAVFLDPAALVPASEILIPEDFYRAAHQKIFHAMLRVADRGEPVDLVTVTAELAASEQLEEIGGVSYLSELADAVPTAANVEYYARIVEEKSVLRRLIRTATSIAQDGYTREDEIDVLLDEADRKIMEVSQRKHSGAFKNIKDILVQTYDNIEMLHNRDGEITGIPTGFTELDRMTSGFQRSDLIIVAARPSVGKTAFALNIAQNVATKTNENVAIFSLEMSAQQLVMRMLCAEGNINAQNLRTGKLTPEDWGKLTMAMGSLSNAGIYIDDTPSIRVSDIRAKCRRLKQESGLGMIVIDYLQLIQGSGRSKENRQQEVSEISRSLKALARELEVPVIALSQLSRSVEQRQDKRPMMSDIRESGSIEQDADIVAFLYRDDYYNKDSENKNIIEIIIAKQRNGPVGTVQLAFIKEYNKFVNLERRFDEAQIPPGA

EcDnaB [2] = target: T1, EcDnaB; assay: negative-stain EM 2D class averages

T1 sequence (P0ACB0 2-471): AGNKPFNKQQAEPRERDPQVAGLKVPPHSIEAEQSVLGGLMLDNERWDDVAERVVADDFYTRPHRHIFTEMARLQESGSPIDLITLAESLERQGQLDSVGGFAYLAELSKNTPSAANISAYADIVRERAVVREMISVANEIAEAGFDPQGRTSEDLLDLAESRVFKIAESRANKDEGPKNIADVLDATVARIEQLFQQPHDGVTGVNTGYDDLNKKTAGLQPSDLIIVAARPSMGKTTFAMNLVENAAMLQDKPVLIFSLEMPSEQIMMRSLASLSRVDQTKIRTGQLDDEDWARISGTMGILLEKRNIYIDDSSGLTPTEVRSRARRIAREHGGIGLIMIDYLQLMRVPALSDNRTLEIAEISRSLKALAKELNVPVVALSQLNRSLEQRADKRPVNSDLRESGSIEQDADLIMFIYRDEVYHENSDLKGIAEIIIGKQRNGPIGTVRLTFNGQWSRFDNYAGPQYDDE

Q: For `Nc1ncnc2c1ncn2[C@@H]1O[C@H](COP(=O)(O)OP(=O)(O)NP(=O)(O)O)[C@@H](O)[C@H]1O` [AMPPNP], which “negative-stain EM 2D class averages and SAXS (collar constriction)” value (EcDnaB [1]) is on record?
A: The value was “two kinds of 2D class averages were observed for EcDnaB in the presence of ATPγS”.

Q: With `Nc1ncnc2c1ncn2[C@@H]1O[C@H](COP(=O)(O)OP(=O)(O)OP(=O)(O)O)[C@@H](O)[C@H]1O` [ATP] as the compound, how does the “negative-stain EM 2D class averages (collar constriction)” value (GstDnaB) read?
A: Its value is 2D EM analysis again revealed evidence for a constricted species in the presence of ATP.

Q: For `Nc1ncnc2c1ncn2[C@@H]1O[C@H](COP(=O)(O)OP(=O)(O)OP(O)(O)=S)[C@@H](O)[C@H]1O` [ATPγS], which “negative-stain EM 2D class averages (collar constriction)” value (EcDnaB [2]) is on record?
A: Its value is “two kinds of 2D class averages were observed for EcDnaB in the presence of ATPγS”.
